Experimental findings from the supplement of paper PMC11208160 are described below.
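Also: IS621 recombinase and bridge RNA in Escherichia coli cells.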

This data set is described as follows: recombinant barcode read abundance after kanamycin selection (control-corrected) (log10(CPM+1)); higher = more efficient recombination; sequences stand for … in AGTGCAGAGAAAATCGGCCAGTTTTCTCTGCCTGCAGTCCGCATGCCGT…AGATTTATGCAGCGGACTGCCTTTCTCCCAAAGTGATAAACCGGACAGTATCATGGACCGGTTTTCCCGGTAATCCGTATTTGCAAGGTTGGTTTCACT; site = the 11-nt target. In short, it runs like this:
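Pooled E. coli screen pairing targets with IS621 bridge RNA target-binding loops. Each oligo (promoter, target, barcode, J23119-driven first 104 bridge RNA bases) was Gibson-cloned into a vector with the remaining 73 bp and T7-inducible recombinase, then co-electroporated with a donor plasmid. Two replicates each were plated on chloramphenicol/ampicillin LB agar (control) or chloramphenicol/ampicillin/kanamycin with 0.1 mM IPTG. Recombination efficiency is recombinant-junction barcode counts as CPM, averaged, control-corrected, reported as log10(CPM+1).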
Take “TAGTTGTCTTGGGTTCTAACCTGTTGCTT (site TAGTTGTCTAA)”: the “recombinant barcode read abundance (log10)” value worked out at 0.569.
As for “TAGTTTACTTGGGTTCTAACCTGTTGCTA (site GGTCAGTCTCC)”, the figure is 0.0822.
For the sequence “TAGTTTACTTGGGTTCTAACCTGTTGCTA (site TAGTTTACTTA)”, the “recombinant barcode read abundance (log10)” value was 0.0536.
As for “TAGTTTGCTTGGGTTCTAACCTGTTGCCG (site ACCGACCCTAT)”, the “recombinant barcode read abundance (log10)” value amounted to 0.00726.
As to “TAGTTTGCTTGGGTTCTAACCTGTTGCCG (site TAGTTTGCTCG)”, the “recombinant barcode read abundance (log10)” value stood at 0.743.
Regarding “TATAAGTCTTGGGTTCTAACCTGTTGCCT (site CGTAAGTCTAG)”, the “recombinant barcode read abundance (log10)” value came to 0.0475.
For the sequence “TATAAGTCTTGGGTTCTAACCTGTTGCCT (site TATAAGTCTAG)”, the “recombinant barcode read abundance (log10)” value amounted to 0.0571.
Take “TATAATACTTGGGTTCTAACCTGTTGCGG (site TAGAATACTCC)”: the “recombinant barcode read abundance (log10)” value was 0.156.
“TATAATACTTGGGTTCTAACCTGTTGCGG (site TATAATACTCC)”: the “recombinant barcode read abundance (log10)” value came to 0.659.
In the case of “TATAGAGCTTGGGTTCTAACCTGTTGCGG (site TAAAGAGCTCC)”, the “recombinant barcode read abundance (log10)” value is 0.358.
Consider “TATAGAGCTTGGGTTCTAACCTGTTGCGG (site TACAGAGCTCC)”, for which the “recombinant barcode read abundance (log10)” value was determined as 0.297.
For “TATAGAGCTTGGGTTCTAACCTGTTGCGG (site TAGAGAGCTCC)”, the “recombinant barcode read abundance (log10)” value was 0.488.
As for “TATAGAGCTTGGGTTCTAACCTGTTGCGG (site TATAGAGCTCC)”, the figure is 2.21; as for “TATATAACTTGGGTTCTAACCTGTTGCCT (site TATAAAACTAG)”, 0.137; as for “TATATAACTTGGGTTCTAACCTGTTGCCT (site TATACAACTAG)”, 0.0941.
As for “TATATAACTTGGGTTCTAACCTGTTGCCT (site TATAGAACTAG)”, the figure is 0.119.
“TATATAACTTGGGTTCTAACCTGTTGCCT (site TATATAACTAG)”: the “recombinant barcode read abundance (log10)” value is 0.125.
As for “TATCAGACTTGGGTTCTAACCTGTTGCCA (site TATCAGACTTG)”, the figure is 0.639; as for “TATCAGACTTGGGTTCTAACCTGTTGCCA (site TATCTGACTAG)”, 0.119.
Turning to “TATCCGACTTGGGTTCTAACCTGTTGCCG (site TATCCGACTAG)”, the “recombinant barcode read abundance (log10)” value is 0.224.
Take “TATCCGACTTGGGTTCTAACCTGTTGCCG (site TATCCGACTCG)”: the “recombinant barcode read abundance (log10)” value is 0.396.
Turning to “TATCCGACTTGGGTTCTAACCTGTTGCCG (site TATCCGACTGG)”, the “recombinant barcode read abundance (log10)” value amounted to 0.386.
“TATCCGACTTGGGTTCTAACCTGTTGCCG (site TATCCGACTTG)”: the “recombinant barcode read abundance (log10)” value is 0.11.
Turning to “TATCCGACTTGGGTTCTAACCTGTTGCCT (site TATCCGACTAG)”, the “recombinant barcode read abundance (log10)” value was 1.12.
With “TATCCGACTTGGGTTCTAACCTGTTGCCT (site TATCCGACTCG)”, the “recombinant barcode read abundance (log10)” value was 0.553.
In the case of “TATCCGACTTGGGTTCTAACCTGTTGCCT (site TATCCGACTGG)”, the “recombinant barcode read abundance (log10)” value came to 0.0369.
As for “TATCCGACTTGGGTTCTAACCTGTTGCCT (site TATCCGACTTG)”, the figure is 0.0377.
For “TATGACGCTTGGGTTCTAACCTGTTGCCT (site TAAGACGCTAG)”, the “recombinant barcode read abundance (log10)” value is 0.261.
Turning to “TATGACGCTTGGGTTCTAACCTGTTGCCT (site TACGACGCTAG)”, the “recombinant barcode read abundance (log10)” value was 0.124.
“TATGACGCTTGGGTTCTAACCTGTTGCCT (site TAGGACGCTAG)”: the “recombinant barcode read abundance (log10)” value amounted to 0.00539.
Under “TATGACGCTTGGGTTCTAACCTGTTGCCT (site TATGACGCTAG)” stands 1.12; under “TATGCGGCTTGGGTTCTAACCTGTTGCCT (site TATGAGGCTAG)”, 0; under “TATGCGGCTTGGGTTCTAACCTGTTGCCT (site TATGCGGCTAG)”, 0.34.
On to “TATGCGGCTTGGGTTCTAACCTGTTGCCT (site TATGGGGCTAG)”, for which the “recombinant barcode read abundance (log10)” value was determined as 0.193.
Take “TATGCGGCTTGGGTTCTAACCTGTTGCCT (site TATGTGGCTAG)”: the “recombinant barcode read abundance (log10)” value was determined as 0.11.
As for “TATTAATCTTGGGTTCTAACCTGTTGCCT (site CATTAGTCTAG)”, the “recombinant barcode read abundance (log10)” value is 0.0101.
As for “TATTAATCTTGGGTTCTAACCTGTTGCCT (site TATTAATCTAG)”, the figure is 0.0472; as for “TATTATACTTGGGTTCTAACCTGTTGCCT (site TATTATACTAA)”, 0.00549.
For “TATTATACTTGGGTTCTAACCTGTTGCCT (site TATTATACTAC)”, the “recombinant barcode read abundance (log10)” value is 0.0157.
For the sequence “TATTATACTTGGGTTCTAACCTGTTGCCT (site TATTATACTAG)”, the “recombinant barcode read abundance (log10)” value amounted to 0.035.
With “TATTATACTTGGGTTCTAACCTGTTGCCT (site TATTATACTAT)”, the “recombinant barcode read abundance (log10)” value is 0.467.
“TATTCACCTTGGGTTCTAACCTGTTGCCT (site AATTCACCTAG)”: the “recombinant barcode read abundance (log10)” value was found to be 0.0667.
On to “TATTCACCTTGGGTTCTAACCTGTTGCCT (site CATTCACCTAG)”, for which the “recombinant barcode read abundance (log10)” value came out at 0.0903.
For “TATTCACCTTGGGTTCTAACCTGTTGCCT (site GATTCACCTAG)”, the “recombinant barcode read abundance (log10)” value was found to be 0.0774.
Under “TATTCACCTTGGGTTCTAACCTGTTGCCT (site TATTCACCTAG)” stands 0.358.
Regarding “TATTCTCCTTGGGTTCTAACCTGTTGCCT (site TATTCTCCTAA)”, the “recombinant barcode read abundance (log10)” value was found to be 0.212.
Take “TATTCTCCTTGGGTTCTAACCTGTTGCCT (site TATTCTCCTAC)”: the “recombinant barcode read abundance (log10)” value amounted to 0.0221.
As for “TATTCTCCTTGGGTTCTAACCTGTTGCCT (site TATTCTCCTAG)”, the “recombinant barcode read abundance (log10)” value worked out at 0.0657.
“TATTCTCCTTGGGTTCTAACCTGTTGCCT (site TATTCTCCTAT)”: the “recombinant barcode read abundance (log10)” value turned out to be 0.0206.
Regarding “TATTCTCCTTGGGTTCTAACCTGTTGCGT (site TATTCTCCTAA)”, the “recombinant barcode read abundance (log10)” value was determined as 0.0153.
With “TATTCTCCTTGGGTTCTAACCTGTTGCGT (site TATTCTCCTAC)”, the “recombinant barcode read abundance (log10)” value came out at 0.243.
Regarding “TATTCTCCTTGGGTTCTAACCTGTTGCGT (site TATTCTCCTAG)”, the “recombinant barcode read abundance (log10)” value was determined as 0.12.
As for “TATTCTCCTTGGGTTCTAACCTGTTGCGT (site TATTCTCCTAT)”, the “recombinant barcode read abundance (log10)” value is 0.0406.
Regarding “TATTCTCCTTGGGTTCTAACCTGTTGCTT (site TATTCTCCTAA)”, the “recombinant barcode read abundance (log10)” value is 0.266.
With “TATTCTCCTTGGGTTCTAACCTGTTGCTT (site TATTCTCCTAC)”, the “recombinant barcode read abundance (log10)” value was found to be 0.0156.
“TATTCTCCTTGGGTTCTAACCTGTTGCTT (site TATTCTCCTAG)”: the “recombinant barcode read abundance (log10)” value turned out to be 0.0207.
In the case of “TATTCTCCTTGGGTTCTAACCTGTTGCTT (site TATTCTCCTAT)”, the “recombinant barcode read abundance (log10)” value was 0.0253.
With “TATTGGACTTGGGTTCTAACCTGTTGCAG (site TATTGGACTAT)”, the “recombinant barcode read abundance (log10)” value was found to be 0.264.
For “TATTGGACTTGGGTTCTAACCTGTTGCAG (site TATTGGACTCT)”, the “recombinant barcode read abundance (log10)” value is 1.05.
As to “TATTGGACTTGGGTTCTAACCTGTTGCAG (site TATTGGACTGT)”, the “recombinant barcode read abundance (log10)” value amounted to 0.0393.
Take “TATTGGACTTGGGTTCTAACCTGTTGCAG (site TATTGGACTTT)”: the “recombinant barcode read abundance (log10)” value came out at 0.14.
“TATTTAGCTTGGGTTCTAACCTGTTGCGG (site ACCAACACTAA)”: the “recombinant barcode read abundance (log10)” value worked out at 0.0937.
As for “TATTTAGCTTGGGTTCTAACCTGTTGCGG (site TATTTAGCTCC)”, the figure is 0.835; as for “TATTTGCCTTGGGTTCTAACCTGTTGCCT (site TAATTGCCTAG)”, 0.0398.
As to “TATTTGCCTTGGGTTCTAACCTGTTGCCT (site TACTTGCCTAG)”, the “recombinant barcode read abundance (log10)” value stood at 0.
On to “TATTTGCCTTGGGTTCTAACCTGTTGCCT (site TAGTTGCCTAG)”, for which the “recombinant barcode read abundance (log10)” value turned out to be 0.408.
As for “TATTTGCCTTGGGTTCTAACCTGTTGCCT (site TATTTGCCTAG)”, the figure is 0; as for “TCAATAGCTTGGGTTCTAACCTGTTGCAC (site AAGCCGCCTAA)”, 0.204; as for “TCAATAGCTTGGGTTCTAACCTGTTGCAC (site TCAATAGCTGT)”, 1.28.
On to “TCACACTCTTGGGTTCTAACCTGTTGCCT (site TCACACTCTAG)”, for which the “recombinant barcode read abundance (log10)” value amounted to 1.59.
For “TCACACTCTTGGGTTCTAACCTGTTGCCT (site TCCCACTCTAG)”, the “recombinant barcode read abundance (log10)” value was 0.111.
With “TCACACTCTTGGGTTCTAACCTGTTGCCT (site TCGCACTCTAG)”, the “recombinant barcode read abundance (log10)” value amounted to 0.101.
Consider “TCACACTCTTGGGTTCTAACCTGTTGCCT (site TCTCACTCTAG)”, for which the “recombinant barcode read abundance (log10)” value came to 0.114.
As for “TCACCACCTTGGGTTCTAACCTGTTGCCT (site GAACCACCTAG)”, the figure is 0.028; as for “TCACCACCTTGGGTTCTAACCTGTTGCCT (site TCACCACCTAG)”, 0.744.
Consider “TCACCTTCTTGGGTTCTAACCTGTTGCCT (site TCACCTTCTAG)”, for which the “recombinant barcode read abundance (log10)” value was determined as 0.274.
“TCACCTTCTTGGGTTCTAACCTGTTGCCT (site TCACTTCCTAG)”: the “recombinant barcode read abundance (log10)” value is 0.0695.
